Test results as given in US20190144368A1, “Compounds and compositions for biofilm prevention” (INHIBIO AS, priority 2016, published 2019).
Several values for one entry are separate records, joined by “and”; a condition that tells them apart may be missing. Equal values may be shown once.

What was measured:
[1] = test system: Gram positive bacteria (three Staphylococcus aureus strains); assay: Biofilm formation in polystyrene microtiter plates (crystal violet, OD595), Gram positive bacteria; type: cell-based; details: one day at 37 °C
Procedure: (§1) All experiments were performed by using sterile 96-wells polystyrene microtiter plates (Nunc, Nuncleon, Roskilde, Denmark) under conditions promoting biofilm formation by the different bacterial genera. The Inhibio compound preparations of the invention; 1,3-cyclohexanedione, 1,4-cyclohexanedione, cyclopentanone, 5-ethylcyclohexane-1,3-dione and 5-methyl-1,3 cyclohexanedione 98% were solved directly in Tryptic Soy Broth (TSB) 1+1 or Liquid Microbiology Broth (LB) broth without NaCl (LB^wo/NaCl) to obtain the test concentrations, i.e. from 1 mg/ml to 10 mg/ml.
Three Staphylococcus aureus strains of animal origin were used in this study. All strains were stored at −80° C. in Brain Heart Infusion Broth (BHI) (Difco, BD, Franklin Lakes, N.J., USA) supplemented with 15% glycerine (Merck KGaA, Darmstadt, Germany) and were recovered on blood agar at 37.0±1.0° C. The bacterial cultures were then transferred into TSB and were incubated statically overnight at 37.0±1.0° C. to obtain an overnight working culture. A total of 2 μl of this suspension was transferred to each 96 wells of polystyrene microtiter plates (Nunc, Nuncleon, Roskilde, Denmark) containing 198 μl TSB 1+1 with dissolved Inhibio compounds in the following concentrations: 0 mg/ml, 1 mg/ml and 10 mg/ml for 1,3-cyclohexanedione; 0 mg/ml and 10 mg/ml for 1,4-cyclohexanedione; and 0 mg/ml, 1 mg/ml, 2 mg/ml and 10 mg/ml for 5-ethylcyclohexane-1,3-dione and 5-Methyl-1,3-cyclohexanedione in the total amount of broth. Three parallels of each strain were used and the microtiter plates were incubated statically for one day, at 37±1.0° C. After incubation, OD595 was measured in a microplate photometer (Multiscan EX; Thermo Fisher Scientific Inc, Waltham, Mass., USA) before the plates were gently washed three times with 290 μl tap water. The plates were dried in room temperature before addition of 220 μl 1% crystal violet (Sigma-Aldrich, St. Louis, Mo., USA). After 30 minutes incubation in room temperature, the plates were washed three times with tap water before the addition of 220 μl ethanol:acetone (70:30 w:w) to dissolve the bound dye. The plates were incubated for 10 minutes in room temperature before OD595 was measured after the bound dye was dissolved using ethanol:acetone. For each strain, the result was calculated by subtracting the median OD595 of the three parallels of the control (test broth only) from the median OD595 of the three parallels of sample. Further, the average result of all three Gram positive strains included in the study were calculated. Three independent experiments were performed and the average was evaluated.

[2] = test system: Gram negative bacteria (Salmonella isolates); assay: Biofilm formation in polystyrene microtiter plates (crystal violet, OD595), Gram negative bacteria; type: cell-based, Salmonella ser. Typhimurium, Salmonella ser. Agona; details: 10 mg/ml, two days at 20 °C
Procedure: as §1
(§2) One Salmonella ser. Typhimurium (S. Typhimurium), two Salmonella ser. Agona (S. Agona) and two Escherichia coli (E. coli) isolates were used in these studies. The studies performed using 1,3-cyclohexanedione and 1,4-cyclohexanedione were done on Salmonella isolates only. The studies comparing Menthone to 1,3-cyclohexanedione were using two E. coli strains, E. coli 1242 and E. coli 1153, see FIG. 11. The Salmonella isolates were isolated from Norwegian feed factories except one S. Typhimurium strain which was a culture collection strain (ATCC 14028). The E. coli isolates were of animal origin. All strains were stored at −80° C. in BHI supplemented with 15% glycerine and were recovered on blood agar at 37.0±1.0° C. The bacterial cultures were then transferred into LB broth and incubated statically overnight at 37.0±1.0° C. to obtain an overnight working culture. A total of 30 μl of this suspension was transferred to each well in 96 wells polystyrene microtiter plates (Nunc, Nuncleon, Roskilde, Denmark) in triplets. The wells were containing 100 μl LB^wo/NaCl (bacto-tryptone 10 g/l, yeast extract 5 g/l) with 1,3-cyclohexanedione dissolved in concentration 0 mg/ml, 1 mg/ml and 10 mg/ml in the total amount of broth and 1,4-cyclohexanedione and cyclopentanone at 0 mg/ml and 10 mg/ml. The microtiter plates were incubated statically for two days, at 20±1.0° C. After incubation, OD595 was measured before the plates were gently washed one time with 150 μl tap water. The plates were dried in room temperature before addition of 140 μl 1% crystal violet (Sigma-Aldrich). After 30 minutes incubation in room temperature, the plates were washed three times with tap water before addition of 140 μl ethanol:acetone (70:30 w:w) and incubated for another 10 minutes in room temperature. OD595 was measured in a microplate photometer (Multiscan EX) after the bound dye was dissolved using ethanol:acetone. For each strain, the result was calculated by subtracting the median OD595 of the three parallels of the control (test broth only) from the median OD595 of the three parallels of sample. Further, the averages of the Gram negative strains were calculated. Three independent experiments were performed and the average was evaluated.

[3] = test system: SRB isolate ATCC 29579 Desulfovibrio vulgaris subspecies vulgaris; assay: Biofilm produced by SRB (sulphate reducing bacteria) on carbon steel coupon in fluids; type: cell-based; details: 10 mg/ml, 20 °C for 12 days
Procedure: One SRB isolate (the culture collection strain: ATCC 29579 Desulfovibrio vulgaris subspecies vulgaris) was tested. 1,4-cyclohexanedione and cyclopentanone were diluted in the culture medium ATCC 1249 to a concentration of 10 mg/ml (1%) and added to each their 50 ml Falcon centrifugal tube. A third tube, with 10 ml of medium only (ATCC 1249) was included as a control. 50 μl SRB starting culture was added to each of the three tubes together with a carbon steel coupon. Biofilm was formed on the coupon by incubating at 20° C. for 12 days. After incubation, the coupons were washed in 40 ml sterile saline to remove loosely adhered cells. A sample from this fluid was injected into SRB medium and blackening of the medium was visualized, showing that there were still free-floating bacteria present.

[4] = test system: E. coli 1242 and E. coli 1153; assay: Biofilm formation in microtiter plates, comparison of 1,3-cyclohexanedione and menthone; type: cell-based, Escherichia coli; details: 1 mg/ml, two values, one per strain (E. coli 1242, E. coli 1153)
Procedure: as §1
as §2, with “A total of 30 μl of this suspension was transferred to each well in 96 wells polystyrene microtiter plates (Nunc, Nuncleon, Roskilde, Denmark) in triplets. The wells were containing 100 μl LB^wo/NaCl (bacto-tryptone 10 g/l, yeast extract 5 g/l) with 1,3-cyclohexanedione dissolved in concentration 0 mg/ml, 1 mg/ml and 10 mg/ml in the total amount of broth and 1,4-cyclohexanedione and cyclopentanone at 0 mg/ml and 10 mg/ml. The microtiter plates were incubated statically for two days, at 20±1.0° C.” left out, “The plates were dried in room temperature before addition of 140 μl 1% crystal violet (Sigma-Aldrich). After 30 minutes incubation in room temperature, the plates were washed three times with tap water before addition of 140 μl ethanol:acetone (70:30 w:w) and incubated for another 10 minutes in room temperature.” left out

Structure (SMILES) | decrease in biofilm formation, percentage of the control ([1]; 1 mg/ml) | decrease in biofilm formation, percentage of the control ([1]; 2 mg/ml) | decrease in biofilm formation, percentage of the control ([1]; 10 mg/ml) | decrease in biofilm formation, percentage of the control [2] | biofilm visualized on carbon steel coupon [3] | decrease in biofilm formation [4]
CCC1CC(=O)CC(=O)C1 [5-ethylcyclohexane-1,3-dione] | 55% | 74% | 98% |  |  | 
O=C1CCCC1 [cyclopentanone, Cyclopentanone] |  |  |  | 77% | only scarce amount of biofilm could be visualized | 
O=C1CCC(=O)CC1 [1,4-cyclohexanedione] |  |  | 53% | 91% | only scarce amount of biofilm could be visualized | 
CC1CCC(C(C)C)C(=O)C1 (stereo not drawn) [menthone, 2-isopropyl-5-methylcyclohexane-1-on, reference compound] |  |  |  |  |  | 27% and 48%
CC1CC(=O)CC(=O)C1 [5-methyl-1,3-cyclohexanedione] | 32% | 85% | 98% |  |  | 
